Key:
A2780 (ovarian) = experiment: Anti-proliferative activity (Cell-Titre luminescence) against A2780 ovarian cancer cells; format: cell-based; details: Homo sapiens, A2780, 72 h, 72 h exposure, Cell-Titre luminescent reagent
Method: (§1) The ability of compounds of the invention to inhibit the proliferation of cancer cells representative of non-small cell lung cancer and ovarian cancer (Table 2), pancreatic cancer, colorectal cancer and prostate cancer (Table 3) was assessed. Briefly, a predetermined number of cells as calculated from cell growth assays for each of the cell lines employed were seeded into their respective culture medium (using ATCC culture parameters—http://www.atcc.org) and cultured for 24 h at 37° C. and 5% CO2 in 96-well culture plates. Once attached, each cell line was then exposed to various concentrations of each respective analogue (30, 10, 3, 1, 0.3 and 0.1 μM), cultured for a further 72 h and exposed to Cell-Titre luminescent reagent (100 μL/well) for a further 30 min. Luminescence was captured using an EnVision multilabel reader and the data for each analogue concentration compared against no treatment control. Cell viability was normalised to control (vehicle alone) and dose response curves, and half maximal effective concentration (EC50) values were determined using Graph Pad Prism 6 (nonlinear regression sigmoidal dose-response variable slope).

A549 (NSCLC) = experiment: Anti-proliferative activity (Cell-Titre luminescence) against A549 non-small cell lung cancer cells; format: cell-based; details: Homo sapiens, A549, 72 h, 72 h exposure, Cell-Titre luminescent reagent
Method: as §1

SMILES: CC(C)C(CNc1nc(-c2ccco2)nc2ccccc12)N1CCN(C)CC1 (centres unmarked) [Compound 6, 2-(furan-2-yl)-N-(3-methyl-2-(4-methylpiperazin-1-yl)butyl)quinazolin-4-amine]
- IC50 (A2780 (ovarian)): > 30 µM
- IC50 (A549 (NSCLC)): > 30 µM

SMILES: CN1CCN(CCNc2nc(Nc3ccc(C(F)(F)F)cc3)nc3ccccc23)CC1 [Compound 42, N^4-(2-(4-methylpiperazin-1-yl)ethyl)-N^2-(4-(trifluoromethyl)phenyl)quinazoline-2,4-diamine]
- IC50 (A2780 (ovarian)): 1.69 µM
- IC50 (A549 (NSCLC)): 4.94 µM

SMILES: COc1ccc(Nc2nc(NCCCN(C)C)c3ccccc3n2)cc1 [Compound 70, N^4-(3-(dimethylamino)propyl)-N^2-(4-methoxyphenyl)quinazoline-2,4-diamine]
- IC50 (A2780 (ovarian)): 8.33 µM
- IC50 (A549 (NSCLC)): 11.7 µM

SMILES: CN1CCN(CCNc2nc(NCc3ccc(C(F)(F)F)cc3)nc3ccccc23)CC1 [Compound 47, N^4-(2-(4-methylpiperazin-1-yl)ethyl)-N^2-(4-(trifluoromethyl)benzyl)quinazoline-2,4-diamine]
- IC50 (A2780 (ovarian)): 6.13 µM
- IC50 (A549 (NSCLC)): 3.28 µM

SMILES: COc1cccc(Nc2nc(NCCO)c3ccccc3n2)c1 [Compound 29, 2-((2-((3-methoxyphenyl)amino)quinazolin-4-yl)amino)ethan-1-ol]
- IC50 (A2780 (ovarian)): 6.91 µM
- IC50 (A549 (NSCLC)): 9.21 µM

SMILES: FC(F)(F)c1cccc(CCNc2nc(NCCN3CCCCC3)c3ccccc3n2)c1 [Compound 114, N^4-(2-(piperidin-1-yl)ethyl)-N^2-(3-(trifluoromethyl)phenethyl)quinazoline-2,4-diamine]
- IC50 (A2780 (ovarian)): 0.937 µM
- IC50 (A549 (NSCLC)): 2.36 µM

SMILES: OCCNc1nc(-c2cccs2)nc2ccccc12 [Compound 18, 2-((2-(thiophen-2-yl)quinazolin-4-yl)amino)ethan-1-ol]
- IC50 (A2780 (ovarian)): > 30 µM
- IC50 (A549 (NSCLC)): > 30 µM

SMILES: CN(C)CCNc1nc(-n2cccc2)nc2ccccc12 [Compound 99, N^1-(2-(1H-pyrrol-1-yl)quinazolin-4-yl)-N^2,N^2-dimethylethane-1,2-diamine]
- IC50 (A2780 (ovarian)): 10.3 µM
- IC50 (A549 (NSCLC)): 22.2 µM

SMILES: COc1cccc(CCNc2nc(NCCN3CCN(C)CC3)c3ccccc3n2)c1 [Compound 53, N^2-(3-methoxyphenethyl)-N^4-(2-(4-methylpiperazin-1-yl)ethyl)quinazoline-2,4-diamine]
- IC50 (A2780 (ovarian)): 18.2 µM
- IC50 (A549 (NSCLC)): > 30 µM

SMILES: COCCNc1nc(NCCc2cccc(C(F)(F)F)c2)nc2ccccc12 [Compound 116, N^4-(2-methoxyethyl)-N^2-(3-(trifluoromethyl)phenethyl)quinazoline-2,4-diamine]
- IC50 (A2780 (ovarian)): 1.39 µM
- IC50 (A549 (NSCLC)): 3.6 µM

SMILES: CN1CCN(CCNc2nc(NCCc3ccccc3F)nc3ccccc23)CC1 [Compound 121, N^2-(2-fluorophenethyl)-N^4-(2-(4-methylpiperazin-1-yl)ethyl)quinazoline-2,4-diamine]
- IC50 (A2780 (ovarian)): 2.38 µM
- IC50 (A549 (NSCLC)): 4 µM

SMILES: COc1ccc(CNc2nc(NCCN3CCN(C)CC3)c3ccccc3n2)cc1 [Compound 49, N^2-(4-methoxybenzyl)-N^4-(2-(4-methylpiperazin-1-yl)ethyl)quinazoline-2,4-diamine]
- IC50 (A2780 (ovarian)): 6.87 µM
- IC50 (A549 (NSCLC)): 8.77 µM

SMILES: CCc1ccc(CCNc2nc(NCCN(C)C)c3ccccc3n2)cc1 [Compound 66, N^4-(2-(dimethylamino)ethyl)-N^2-(4-ethylphenethyl)quinazoline-2,4-diamine]
- IC50 (A2780 (ovarian)): 13.7 µM
- IC50 (A549 (NSCLC)): > 30 µM

SMILES: CCc1ccc(Nc2nc(NCCN3CCN(C)CC3)c3ccccc3n2)cc1 [Compound 55, N^2-(4-ethylphenyl)-N^4-(2-(4-methylpiperazin-1-yl)ethyl)quinazoline-2,4-diamine]
- IC50 (A2780 (ovarian)): 7.16 µM
- IC50 (A549 (NSCLC)): 4.45 µM

SMILES: CN1CCN(CCNc2nc(NCCc3ccccn3)nc3ccccc23)CC1 [Compound 144, N^4-(2-(4-methylpiperazin-1-yl)ethyl)-N^2-(2-(pyridin-2-yl)ethyl)quinazoline-2,4-diamine]
- IC50 (A2780 (ovarian)): 9.37 µM
- IC50 (A549 (NSCLC)): 27.8 µM

SMILES: COc1ccc(CCNc2nc(NCCO)c3ccccc3n2)cc1 [Compound 39, 2-((2-((4-methoxyphenethyl)amino)quinazolin-4-yl)amino)ethan-1-ol]
- IC50 (A2780 (ovarian)): 11.9 µM
- IC50 (A549 (NSCLC)): > 30 µM

SMILES: Cc1ccc(CCNc2nc(NCCN3CCN(C)CC3)c3ccccc3n2)cc1 [Compound 127, N^2-(4-methylphenethyl)-N^4-(2-(4-methylpiperazin-1-yl)ethyl)quinazoline-2,4-diamine]
- IC50 (A2780 (ovarian)): 2.62 µM
- IC50 (A549 (NSCLC)): 2.54 µM

SMILES: c1c[nH]c(-c2nc(NCCc3c[nH]cn3)c3ccccc3n2)c1 [Compound 106, N-(2-(1H-imidazol-4-yl)ethyl)-2-(1H-pyrrol-2-yl)quinazolin-4-amine]
- IC50 (A2780 (ovarian)): 8.43 µM
- IC50 (A549 (NSCLC)): 15.6 µM

SMILES: c1ccc2c(NCCc3c[nH]cn3)nc(-c3ccsc3)nc2c1 [Compound 105, N-(2-(1H-imidazol-4-yl)ethyl)-2-(thiophen-3-yl)quinazolin-4-amine]
- IC50 (A2780 (ovarian)): 9.05 µM
- IC50 (A549 (NSCLC)): 24.1 µM

SMILES: CCc1ccc(Nc2nc(NCCN(C)C)c3ccccc3n2)cc1 [Compound 62, N^4-(2-(dimethylamino)ethyl)-N^2-(4-ethylphenyl)quinazoline-2,4-diamine]
- IC50 (A2780 (ovarian)): 13.1 µM
- IC50 (A549 (NSCLC)): 7.5 µM

SMILES: CC(C)C(CNc1nc(-n2cccc2)nc2ccccc12)N1CCN(C)CC1 (centres unmarked) [Compound 9, N-(3-methyl-2-(4-methylpiperazin-1-yl)butyl)-2-(1H-pyrrol-1-yl)quinazolin-4-amine]
- IC50 (A2780 (ovarian)): 5.79 µM
- IC50 (A549 (NSCLC)): 4.94 µM

SMILES: CN1CCN(CCNc2nc(N3CCCC3)nc3ccccc23)CC1 [Compound 16, N-(2-(4-methylpiperazin-1-yl)ethyl)-2-(pyrrolidin-1-yl)quinazolin-4-amine]
- IC50 (A2780 (ovarian)): 22.5 µM
- IC50 (A549 (NSCLC)): > 30 µM

SMILES: OCCCNc1nc(-n2cccc2)nc2ccccc12 [Compound 111, 3-((2-(1H-pyrrol-1-yl)quinazolin-4-yl)amino)propan-1-ol]
- IC50 (A2780 (ovarian)): > 30 µM
- IC50 (A549 (NSCLC)): > 30 µM

SMILES: COc1ccc(CCNc2nc(NCCN3CCN(C)CC3)c3ccccc3n2)cc1OC [Compound 137, N^2-(3,4-dimethoxyphenethyl)-N^4-(2-(4-methylpiperazin-1-yl)ethyl)quinazoline-2,4-diamine]
- IC50 (A2780 (ovarian)): 8.71 µM
- IC50 (A549 (NSCLC)): 13.4 µM

SMILES: CC(C)C(CNc1nc(-c2ccc[nH]2)nc2ccccc12)N1CCN(C)CC1 (centres unmarked) [Compound 4, N-(3-methyl-2-(4-methylpiperazin-1-yl)butyl)-2-(1H-pyrrol-2-yl)quinazolin-4-amine]
- IC50 (A2780 (ovarian)): 8.3 µM
- IC50 (A549 (NSCLC)): 8.56 µM

SMILES: CN1CCN(CCNc2nc(NCCc3ccc(Cl)c(Cl)c3)nc3ccccc23)CC1 [Compound 135, N^2-(3,4-dichlorophenethyl)-N^4-(2-(4-methylpiperazin-1-yl)ethyl)quinazoline-2,4-diamine]
- IC50 (A2780 (ovarian)): 0.66 µM
- IC50 (A549 (NSCLC)): 3.19 µM

SMILES: OCCNc1nc(NCCc2cccc(C(F)(F)F)c2)nc2ccccc12 [Compound 36, 2-((2-((3-(trifluoromethyl)phenethyl)amino)quinazolin-4-yl)amino)ethan-1-ol]
- IC50 (A2780 (ovarian)): 2.32 µM
- IC50 (A549 (NSCLC)): 2.67 µM

SMILES: CN1CCN(CCNc2nc(NCCc3cccc(F)c3)nc3ccccc23)CC1 [Compound 58, N^2-(3-fluorophenethyl)-N^4-(2-(4-methylpiperazin-1-yl)ethyl)quinazoline-2,4-diamine]
- IC50 (A2780 (ovarian)): 6.22 µM
- IC50 (A549 (NSCLC)): 5.85 µM

SMILES: COc1cccc(CCNc2nc(NCCO)c3ccccc3n2)c1 [Compound 38, 2-((2-((3-methoxyphenethyl)amino)quinazolin-4-yl)amino)ethan-1-ol]
- IC50 (A2780 (ovarian)): 18.8 µM
- IC50 (A549 (NSCLC)): 26.8 µM

SMILES: CN1CCN(CCNc2nc(SCCc3cccc(C(F)(F)F)c3)nc3ccccc23)CC1 [Compound 151, N-(2-(4-methylpiperazin-1-yl)ethyl)-2-((3-(trifluoromethyl)phenethyl)thio)quinazolin-4-amine]
- IC50 (A2780 (ovarian)): 5.81 µM
- IC50 (A549 (NSCLC)): 7.41 µM

SMILES: OCCNc1nc(-c2ccoc2)nc2ccccc12 [Compound 23, 2-((2-(furan-3-yl)quinazolin-4-yl)amino)ethan-1-ol]
- IC50 (A2780 (ovarian)): > 30 µM
- IC50 (A549 (NSCLC)): > 30 µM

SMILES: CN(C)CCCNc1nc(-c2cc[nH]c2)nc2ccccc12 [Compound 102, N^1-(2-(1H-pyrrol-3-yl)quinazolin-4-yl)-N^3,N^3-dimethylpropane-1,3-diamine]
- IC50 (A2780 (ovarian)): 1.32 µM
- IC50 (A549 (NSCLC)): 7.45 µM

SMILES: CN1CCN(CCNc2nc(NCCc3cc(Cl)cc(Cl)c3)nc3ccccc23)CC1 [Compound 139, N^2-(3,5-dichlorophenethyl)-N^4-(2-(4-methylpiperazin-1-yl)ethyl)quinazoline-2,4-diamine]
- IC50 (A2780 (ovarian)): 1.1 µM
- IC50 (A549 (NSCLC)): 3.44 µM

SMILES: CN1CCN(CCNc2nc(NCCc3cc(F)c(F)c(F)c3)nc3ccccc23)CC1 [Compound 141, N^4-(2-(4-methylpiperazin-1-yl)ethyl)-N^2-(3,4,5-trifluorophenethyl)quinazoline-2,4-diamine]
- IC50 (A2780 (ovarian)): 1.22 µM
- IC50 (A549 (NSCLC)): 3.3 µM

SMILES: CN1CCN(CCNc2nc(NCCc3cccs3)nc3ccccc23)CC1 [Compound 147, N^4-(2-(4-methylpiperazin-1-yl)ethyl)-N^2-(2-(thiophen-2-yl)ethyl)quinazoline-2,4-diamine]
- IC50 (A2780 (ovarian)): 2.81 µM
- IC50 (A549 (NSCLC)): 3.18 µM

SMILES: OCCNc1nc(NCCc2ccccc2)nc2ccccc12 [Compound 35, 2-((2-(phenethylamino)quinazolin-4-yl)amino)ethan-1-ol]
- IC50 (A2780 (ovarian)): 7.47 µM
- IC50 (A549 (NSCLC)): > 30 µM

SMILES: c1ccc2c(NCCc3c[nH]cn3)nc(-n3cccc3)nc2c1 [Compound 108, N-(2-(1H-imidazol-4-yl)ethyl)-2-(1H-pyrrol-1-yl)quinazolin-4-amine]
- IC50 (A2780 (ovarian)): 5.79 µM
- IC50 (A549 (NSCLC)): 9.53 µM

From US20230339866A1, “Quinazoline compounds and the use thereof in the treatment of cancer” (TROBIO THERAPEUTICS PTY LTD, priority 2020, published 2023)
